{
  "source": "patent US20160047819A1",
  "about": "“METHOD FOR DIAGNOSING VAGINAL INFECTIONS” (priority 2013, published 2016)",
  "assay_in_all_cases": "Real-time PCR of vaginal bacterial communities",
  "format_in_all_cases": "in vivo",
  "key": {"Mycoplasma hominis": {"test_system": "Mycoplasma hominis", "experimental": "(§1) The qPCR real-time quantitative PCR was used for the identification and quantification of bacterial groups involved in the imbalance that effects the vaginal microbiota, in particular to determine the concentrations of the principal bacterial groups which are known to be affected in the presence of BV such as Lactobacillus, Atopobium, Gardnerella vaginalis, Prevotella, Veillonella, Mobiluncus and Mycoplasma hominis.\n(§2) qPCR was performed on DNA samples extracted from CVF of healthy women (H), women affected by BV at V1 (BV), women who were in remission after rifaximin treatment at V3 (R), and women who were not in remission after antibiotic or placebo treatment at V3 (N).\n(§3) A total of 80 Belgian pre-menopausal, non-pregnant women, aged between 18 and 50 years were included in the present study. At the screening visit (V1) diagnosis of health or BV was made using both Amsel's criteria and Gram stain Nugent scoring. Patients with Nugent score >3 and positive for at least 3 of 4 Amsel's criteria were considered positive for BV. According to this clinical evaluation, women were split into 2 groups: healthy subjects (H), who had no signs of vaginal tract infection (n=41) and patients affected by BV (n=39).\n(§4) Patients who were diagnosed for BV at the study visit V1 were included in a multicentre, double-blind, randomised, placebo-controlled study (EudraCT: 2009-011826-32), that was performed to compare the efficacy of different doses of rifaximin vaginal tablets versus placebo for the treatment of BV. The patients underwent a randomization visit and were distributed into 4 treatment groups: group A received 100 mg rifaximin vaginal tablet once daily for 5 days (n=10), group B received 25 mg rifaximin vaginal tablet once daily for 5 days (n=10), group C received 100 mg rifaximin vaginal tablet once daily for the first 2 days and placebo vaginal tablet for the remaining 3 days (n=9), group D received placebo vaginal tablet once daily for 5 days (n=10). Study medication was administered intra-vaginally at bedtime. After 7 to 10 days from the end of the therapy a follow-up visit (V3) was performed. Remission was evaluated at V3 according to Amsel's criteria (<3) and Gram stain Nugent score (≦3) (Table 1).\n(§5) Standardized vaginal rinsings with 2 mL of saline were collected for analysis at V1 and V3 by flushing and re-aspirating the fluid through a 22 Gauge needle in the left, central and right upper vaginal vaults. The vaginal rinsings were subsequently stored at −80° C. until use.\n(§6) One mL of each vaginal rinsing was centrifuged at 9500 g for 15 min to separate the pellet, which was processed for bacterial DNA isolation, from the supernatant, used for protein extraction.\n(§7) DNA amount was quantified using NanoDrop ND-1000 (NanoDrop® Technologies, Wilmington, Del.).\n(§8) Real-time PCR was performed on DNA samples extracted from cervicovaginal fluid (CVF) collected from 41 healthy women (H) and 39 BV-affected women before (BV) and after rifaximin/placebo treatment R (11 women in remission) and N (28 women not in remission).\n(§9) Specific primer sets targeted to 16S rRNA gene or 16S-23S rRNA spacer region were used to quantify the following genus or species: Lactobacillus, Gardnerella vaginalis, Atopobium, Prevotella, Veillonella, Mycoplasma hominis and Mobiluncus."}, "Lactobacillus": {"test_system": "Lactobacillus", "experimental": "as §1, §2, §3, §4, §5, §6, §7, §8, §9"}, "Prevotella": {"test_system": "Prevotella", "experimental": "as §1, §2, §3, §4, §5, §6, §7, §8, §9"}, "Veillonella": {"test_system": "Veillonella", "experimental": "as §1, §2, §3, §4, §5, §6, §7, §8, §9"}, "Mobiluncus": {"test_system": "Mobiluncus", "experimental": "as §1, §2, §3, §4, §5, §6, §7, §8, §9"}, "Atopobium": {"test_system": "Atopobium", "experimental": "as §1, §2, §3, §4, §5, §6, §7, §8, §9"}, "Gardnerella vaginalis": {"test_system": "Gardnerella vaginalis", "experimental": "as §1, §2, §3, §4, §5, §6, §7, §8, §9"}, "[1]": {"conditions": "R group: women in remission after rifaximin treatment at V3"}, "[2]": {"conditions": "R group: women in remission after rifaximin treatment at V3, qPCR"}},
  "data": [
    {"smiles": "CO[C@H]1/C=C/O[C@@]2(C)Oc3c(C)c(O)c4c(O)c(c5c(nc6cc(C)ccn65)c4c3C2=O)NC(=O)/C(C)=C\\C=C\\[C@H](C)[C@H](O)[C@@H](C)[C@@H](O)[C@@H](C)[C@H](OC(C)=O)[C@@H]1C", "note": "[rifaximin]", "values": [
      {"measurement": "M. hominis in R group compared to BV group", "setting": "Mycoplasma hominis; R group at V3 vs BV group", "result": "significant reduction"},
      {"measurement": "Target DNA/genomic vaginal DNA (median), Mycoplasma hominis", "setting": "Mycoplasma hominis; [1]", "result": 0.00156, "unit": "ng/µg"},
      {"measurement": "% of women hosting Mycoplasma hominis", "setting": "Mycoplasma hominis; [2]", "result": 63.6, "unit": "%"},
      {"measurement": "median value of Lactobacilli in R group relative to BV group", "setting": "Lactobacillus; R group after antibiotic treatment vs BV group, higher", "result": "about 10 times"},
      {"measurement": "Target DNA/genomic vaginal DNA (median), Lactobacillus", "setting": "Lactobacillus; [1]", "result": 46.3, "unit": "ng/µg"},
      {"measurement": "% of women hosting Lactobacillus", "setting": "Lactobacillus; [2]", "result": 100, "unit": "%"},
      {"measurement": "Prevotella concentration in R group", "setting": "Prevotella; R group at V3", "result": "very low concentrations"},
      {"measurement": "Target DNA/genomic vaginal DNA (median), Prevotella", "setting": "Prevotella; [1]", "result": 0.0451, "unit": "ng/µg"},
      {"measurement": "% of women hosting Prevotella", "setting": "Prevotella; [2]", "result": 81.8, "unit": "%"},
      {"measurement": "Veillonella quantification in R group", "setting": "Veillonella; R group at V3", "result": "not quantified in any of the women"},
      {"measurement": "Target DNA/genomic vaginal DNA (median), Veillonella", "setting": "Veillonella; [1]", "result": 0.0, "unit": "ng/µg"},
      {"measurement": "% of women hosting Veillonella", "setting": "Veillonella; [2]", "result": 0.0, "unit": "%"},
      {"measurement": "Mobiluncus quantification in R group", "setting": "Mobiluncus; R group at V3", "result": "not quantified in any of the women"},
      {"measurement": "Target DNA/genomic vaginal DNA (median), Mobiluncus", "setting": "Mobiluncus; [1]", "result": 0.0, "unit": "ng/µg"},
      {"measurement": "% of women hosting Mobiluncus", "setting": "Mobiluncus; [2]", "result": 0.0, "unit": "%"},
      {"measurement": "Atopobium concentration in R group compared to BV group", "setting": "Atopobium; R group at V3 vs BV group, still higher than H group", "result": "significantly lower"},
      {"measurement": "Target DNA/genomic vaginal DNA (median), Atopobium", "setting": "Atopobium; [1]", "result": 4.86, "unit": "ng/µg"},
      {"measurement": "% of women hosting Atopobium", "setting": "Atopobium; [2]", "result": 100, "unit": "%"},
      {"measurement": "G. vaginalis concentration in R group", "setting": "Gardnerella vaginalis; R group at V3", "result": "very low concentrations"},
      {"measurement": "Target DNA/genomic vaginal DNA (median), G. vaginalis", "setting": "Gardnerella vaginalis; [1]", "result": 0.0, "unit": "ng/µg"},
      {"measurement": "% of women hosting Gardnerella vaginalis", "setting": "Gardnerella vaginalis; [2]", "result": 45.5, "unit": "%"}
    ]}
  ]
}
